According to ChEMBL document CHEMBL5260833, “An overview of quinazolines: Pharmacological significance and recent developments” (Eur J Med Chem, 2018):

Key:
[1] = system: Mus musculus; assay: Sedative activity in mouse assessed as sleeping time at 300 mg/kg, ip; format: functional
[2] = system: Mus musculus; assay: Sedative activity in mouse assessed as sleeping time at 100 mg/kg, ip; format: functional
[3] = system: Mus musculus; assay: Sedative activity in mouse assessed as sleeping time at 30 mg/kg, ip; format: functional
[4] = system: Mus musculus; assay: Analgesic activity in acetic acid peritonitis induced mouse assessed as reduction in writhing at 10 mg/kg, po measured after 1 hrs by writhing test relative to control; format: functional
[5] = system: Mus musculus; assay: Analgesic activity in phenylbenzoquinone induced mouse assessed as reduction in writhing at 10 mg/kg, po measured after 1 hrs by writhing test relative to control; format: functional
[6] = system: MDA-MB-231; assay: Anticancer activity against human MDA-MB-231 cells assessed as cell growth inhibition incubated for 24 hrs by MTT assay; format: functional, cell-based; conditions: MDA-MB-231, 24 h
[7] = system: HeLa; assay: Anticancer activity against human HeLa cells assessed as cell growth inhibition incubated for 24 hrs by MTT assay; format: functional, cell-based
[8] = system: Canis familiaris; assay: Antiplatelet activity in iv dosed dog assessed as platelet aggregation; format: functional, organism-based; conditions: Canis lupus familiaris
[9] = Antiviral activity against Gomphrena mosaic virus relative to control; format: functional, Gomphrena mosiac virus; set-up: concentration or dose not given beside the values
[10] = system: Rattus norvegicus; assay: Antiinflammatory activity in carrageenan induced rat at assessed as reduction in paw edema 50 mg/kg, ip measured after […] relative to control; format: functional; set-up: scale not given: the % may be the effect or the level left
[11] = system: Human immunodeficiency virus 2; assay: Antiviral activity against HIV-2 infected in human MT4 cells assessed as protection against virus-induced cytotoxicity relative to control; format: functional; set-up: concentration or dose not given beside the values
[12] = system: Human immunodeficiency virus 1; assay: Antiviral activity against HIV-1 infected in human MT4 cells assessed as protection against virus-induced cytotoxicity relative to control; format: functional; set-up: concentration or dose not given beside the values
[13] = organism: Mus musculus; assay: Sedative hypnotic activity in mouse; format: functional; set-up: concentration or dose not given beside the values
[14] = system: Rattus norvegicus; assay: Antiinflammatory activity in rat at assessed as reduction in paw edema at 200 mg/kg relative to control; format: functional
[15] = organism: Oryctolagus cuniculus; assay: Antihypertensive activity in rabbit aorta assessed as vasodilation; format: functional
[16] = organism: Homo sapiens; assay: Immunosuppressive activity in human B cell; format: functional, organism-based
[17] = organism: Homo sapiens; assay: Immunosuppressive activity in human T cell; format: functional, organism-based
[18] = system: CCRF-CEM; assay: Anticancer activity against human CCRF-CEM cell assessed as cell growth inhibition measured after 120 hrs; format: functional, cell-based
[19] = system: WIL2; assay: Anticancer activity against human WIL2 cell assessed as cell growth inhibition measured after 120 hrs; format: functional, cell-based; conditions: WIL2, 120 h
[20] = Inhibition of HCV RNA IRES IIa by FRET assay; set-up: species or system Hepacivirus hominis
[21] = system: Mus musculus; assay: Anticonvulsant activity in ip dosed mouse assessed as reduction in clonus phase; format: functional
[22] = system: Mus musculus; assay: Anticonvulsant activity in ip dosed mouse assessed as reduction in tonus phase; format: functional
[23] = Therapeutic index, ratio of IC50 for antiviral activity against HIV infected in human H9 cells to EC50 for antiviral activity against HIV infected in human H9 cells; format: toxicity, cell-based; conditions: human immunodeficiency virus, H9 cells infected with HIV; read-out: Ratio IC50/EC50
[24] = system: Human immunodeficiency virus; assay: Antiviral activity against HIV infected in human H9 cells; format: functional, organism-based; conditions: Human immunodeficiency virus 1, H9
[25] = biological target: Histamine H2 receptor (Homo sapiens) (UniProt P25021); assay: Inhibition of histamine h2 (unknown origin)
Chain of Histamine H2 receptor (Homo sapiens) (P25021 whole entry): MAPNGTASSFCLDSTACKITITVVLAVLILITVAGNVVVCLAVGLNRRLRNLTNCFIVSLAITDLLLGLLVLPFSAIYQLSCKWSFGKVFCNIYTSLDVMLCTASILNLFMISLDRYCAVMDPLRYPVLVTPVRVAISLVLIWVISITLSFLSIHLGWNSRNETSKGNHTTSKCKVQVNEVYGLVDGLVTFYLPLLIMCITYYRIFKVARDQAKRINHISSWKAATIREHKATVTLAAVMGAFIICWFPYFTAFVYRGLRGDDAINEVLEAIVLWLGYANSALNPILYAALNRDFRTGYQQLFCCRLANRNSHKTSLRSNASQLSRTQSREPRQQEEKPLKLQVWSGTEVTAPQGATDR

## O=c1c2ccccc2nc(-c2ccncc2)n1-c1ccccc1F
[1]
  Time: 699.7 min
[2]
  Time: 111.2 min
[3]
  Time: 3.5 min

## CC(=O)Oc1ccccc1C(=O)O [ASPIRIN]
[4]
  inhibition in vivo at 10 mg/kg: 60%
[5]
  inhibition in vivo at 10 mg/kg: 20%

## COc1cccc2c(=O)n(Cc3ccccc3)c(SCCCN3C(=O)c4ccccc4C3=O)nc12
[6]
  IC50: 1850 nM
[7]
  IC50: 1850 nM

## CCCCS(=O)(=O)NC(CCCc1ccc2[nH]c(=O)n(CCC3CCNCC3)c(=O)c2c1)C(=O)O (stereo not drawn)
[8]
  IC50: 210 nM

## COc1cc(N/N=C(C)/N=N/n2cnc3ccccc3c2=O)ccc1O
[9]
  Activity: 15%

## O=c1c2ccccc2nc(-c2ccccc2)n1-c1nc2ccccc2s1
[10]
  Activity: 30.3%

## O=c1c2ccccc2nc(S)n1NCNc1ccccn1
[11]
  Activity: 27%
[12]
  Activity: 25%

## Cc1cccc(-n2c(=O)c3ccccc3n3c(CCl)nnc23)c1
[13]
  Activity: 4%

## O=C(O)c1cc(Br)ccc1-n1c(/C=C/c2ccc([N+](=O)[O-])cc2)nc2ccccc2c1=O
[14]
  inhibition in vivo at 200 mg/kg: 62.2%

## COc1cccc2c(=O)n(Cc3ccccc3)c(SCCN3CCOCC3)nc12
[6]
  IC50: 1850 nM
[7]
  IC50: 1850 nM

## CCc1nnc2n(-c3cccc(C)c3)c(=O)c3ccccc3n12
[13]
  Activity: 4%

## O=C(O)c1ccc(Cl)cc1-n1c(/C=C/c2ccc(F)cc2)nc2ccccc2c1=O
[14]
  inhibition in vivo at 200 mg/kg: 62.2%

## O=c1c2ccccc2nc(S)n1NCNc1ccccc1
[11]
  Activity: 27%
[12]
  Activity: 25%

## CC(=O)OC1C([N+](=O)[O-])c2ccccc2C(=O)N1[N+](=O)[O-] (stereo not drawn)
[15]
  pD2: 5.36

## C#CCN(Cc1ccc2nc(C)[nH]c(=O)c2c1)c1ccc(C(=O)N[C@@H](C[C@@H](F)C(=O)O)C(=O)O)cc1
[16]
  IC50: 8.08 nM
[17]
  IC50: 5.67 nM

## O=C(O)c1cc(Br)ccc1-n1c(/C=C/c2ccc(O)cc2)nc2ccccc2c1=O
[14]
  inhibition in vivo at 200 mg/kg: 62.2%

## CC(/N=N/n1cnc2ccccc2c1=O)=N\Nc1ccccc1Cl
[9]
  Activity: 15%

## Nc1nc(N)c2c(CCCc3ccc(C(=O)N[C@@H](C[C@H](F)C(=O)O)C(=O)O)cc3)c[nH]c2n1
[16]
  IC50: 2930 nM
[17]
  IC50: 1410 nM

## O=c1c2c(Br)cc(Br)cc2nc(-c2ccccc2)n1-c1nc2ccccc2s1
[10]
  Activity: 21.3%

## CCCCS(=O)(=O)NC(CNC(=O)c1ccc2[nH]c(=O)n(CCC3CCNCC3)c(=O)c2c1)C(=O)O (stereo not drawn)
[8]
  IC50: 210 nM

## O=c1c2ccccc2nc(S)n1NCn1cnc2ccccc21
[11]
  Activity: 27%
[12]
  Activity: 25%

## COC(=O)CCC(NC(=O)c1ccc(NCc2ccc3nc(C)[nH]c(=O)c3c2Cl)s1)C(=O)OC (stereo not drawn)
[18]
  IC50: 2100 nM
[19]
  IC50: 1800 nM

## CC1(C)NC(N)=Nc2ccccc21
[20]
  EC50: 420000 nM

## Nc1ccc(-c2nc(S)c3cc4c(cc3n2)OCO4)cc1
[21]
  ED50: 68.3 µmol/kg
[22]
  ED50: 36.6 µmol/kg

## O=C(O)c1ccc(Cl)cc1-n1c(/C=C/c2ccc([N+](=O)[O-])cc2)nc2ccccc2c1=O
[14]
  inhibition in vivo at 200 mg/kg: 62.2%

## COC(=O)CCC(NC(=O)c1ccc(NCc2ccc3nc(N)[nH]c(=O)c3c2Cl)s1)C(=O)OC (stereo not drawn)
[18]
  IC50: 2100 nM
[19]
  IC50: 1800 nM

## COc1cc2nc(-c3ccc4ccccc4c3)nc(O)c2cc1OC
[23]
  selectivity ratio: 13.2
[24]
  EC50: 7590 nM
  IC50: 100000 nM

## O=c1[nH]c(NCCCOc2cccc(CN3CCCCC3)c2)nc2ccccc12
[25]
  pKb: 7.39

## Nc1nc2c(c(=O)[nH]1)C[C@@H](CCc1ccc(C(=O)N[C@@H](C[C@@H](F)C(=O)O)C(=O)O)cc1)CN2
[16]
  IC50: 2930 nM
[17]
  IC50: 2300 nM

## CCCCS(=O)(=O)NC(CCCc1ccc2c(c1)c(=O)n(CCC1CCNCC1)c(=O)n2Cc1ccncc1)C(=O)O (stereo not drawn)
[8]
  IC50: 210 nM

## O=C(O)c1ccc(Cl)c(-n2c(/C=C/c3ccc(F)cc3)nc3ccccc3c2=O)c1
[14]
  inhibition in vivo at 200 mg/kg: 62.2%

## COC(=O)CCC(NC(=O)c1ccc(N(C)Cc2ccc3nc(C)[nH]c(=O)c3c2)s1)C(=O)OC (stereo not drawn)
[18]
  IC50: 2100 nM
[19]
  IC50: 1800 nM

## CC(/N=N/n1cnc2ccccc2c1=O)=N\Nc1ccccc1
[9]
  Activity: 15%

## Cc1nc2ccccc2c(=O)n1NCN1CCOCC1
[11]
  Activity: 25%
[12]
  Activity: 21%

## Cc1cccc(-n2c(=O)c3ccccc3n3cnnc23)c1
[13]
  Activity: 4%
